Experimental data as given in patent US12606520B2, “Calpain-2 inhibitor compounds and methods of treatment” (WESTERN UNIVERSITY OF HEALTH SCIENCES, priority 2020, dated 2026).
Entries after “also recorded” stand apart in the source; their conditions may differ.

Key:
calpain-2 = target: T1, calpain-2 (Homo sapiens, UniProt P17655); assay: Inhibitory activity of NA112 isomers against calpain-2; format: biochemical; conditions: highest concentration tested, 3 μM
T1 sequence (P17655 1-700): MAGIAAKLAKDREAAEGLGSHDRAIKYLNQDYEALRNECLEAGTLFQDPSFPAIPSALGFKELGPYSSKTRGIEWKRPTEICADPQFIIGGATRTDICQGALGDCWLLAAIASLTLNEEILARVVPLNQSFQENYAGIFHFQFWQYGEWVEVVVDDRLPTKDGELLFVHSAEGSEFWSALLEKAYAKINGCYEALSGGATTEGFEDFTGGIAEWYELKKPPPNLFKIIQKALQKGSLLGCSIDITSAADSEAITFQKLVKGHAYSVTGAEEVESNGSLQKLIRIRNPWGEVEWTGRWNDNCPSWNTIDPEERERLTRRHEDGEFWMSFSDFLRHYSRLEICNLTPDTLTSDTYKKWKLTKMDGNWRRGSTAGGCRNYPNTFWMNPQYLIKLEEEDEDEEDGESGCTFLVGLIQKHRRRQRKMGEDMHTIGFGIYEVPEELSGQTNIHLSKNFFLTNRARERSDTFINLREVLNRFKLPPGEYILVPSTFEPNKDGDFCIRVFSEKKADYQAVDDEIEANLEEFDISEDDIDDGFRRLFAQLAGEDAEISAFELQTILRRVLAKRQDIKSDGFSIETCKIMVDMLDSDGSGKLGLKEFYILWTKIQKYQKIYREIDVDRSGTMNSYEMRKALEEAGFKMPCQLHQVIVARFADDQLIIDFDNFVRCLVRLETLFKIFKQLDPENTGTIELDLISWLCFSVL
T1 sequence (P04632 1-268 partner): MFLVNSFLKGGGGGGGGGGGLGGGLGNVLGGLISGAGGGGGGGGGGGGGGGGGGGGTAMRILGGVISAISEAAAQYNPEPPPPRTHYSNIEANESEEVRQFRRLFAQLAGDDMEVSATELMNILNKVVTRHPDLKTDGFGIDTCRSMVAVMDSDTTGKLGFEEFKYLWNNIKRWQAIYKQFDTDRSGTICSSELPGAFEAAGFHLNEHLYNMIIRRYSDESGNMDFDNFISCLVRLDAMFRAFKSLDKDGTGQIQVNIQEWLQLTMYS
Protocol: (§1) The inhibitory activity of the compounds NA112A (S-S isomer) and NA112B (S-R stereoisomer) against calpain-1 and calpain-2 were determined.

[1] = Stability in mouse plasma at 37° C. (residual inhibition of purified human calpain-2); format: in vitro ADME; conditions: β-cyclodextrin formulation, 10 μM
Protocol: NA112 (C12, 0.2 mM) was incubated with mouse plasma at 37° C. for the indicated periods of time. Aliquots were taken and the degree of inhibition of purified human calpain-2 was measured. Results were normalized to the maximum degree of inhibition (100%) measured at to.
NA112A in β-cyclodextrin formulation (10 μM) was incubated in mouse plasma at 37° C. for the indicated periods of time. Aliquots were taken and the degree of inhibition of purified human calpain-2 was measured. Results were normalized to the maximum degree of inhibition (50%) measured at t0.

calpain-1 = target: T2, calpain-1 (Homo sapiens, UniProt P07384); assay: Inhibitory activity of NA112 isomers against calpain-1; format: biochemical; conditions: highest concentration tested, 3 μM
T2 sequence (P07384 1-714): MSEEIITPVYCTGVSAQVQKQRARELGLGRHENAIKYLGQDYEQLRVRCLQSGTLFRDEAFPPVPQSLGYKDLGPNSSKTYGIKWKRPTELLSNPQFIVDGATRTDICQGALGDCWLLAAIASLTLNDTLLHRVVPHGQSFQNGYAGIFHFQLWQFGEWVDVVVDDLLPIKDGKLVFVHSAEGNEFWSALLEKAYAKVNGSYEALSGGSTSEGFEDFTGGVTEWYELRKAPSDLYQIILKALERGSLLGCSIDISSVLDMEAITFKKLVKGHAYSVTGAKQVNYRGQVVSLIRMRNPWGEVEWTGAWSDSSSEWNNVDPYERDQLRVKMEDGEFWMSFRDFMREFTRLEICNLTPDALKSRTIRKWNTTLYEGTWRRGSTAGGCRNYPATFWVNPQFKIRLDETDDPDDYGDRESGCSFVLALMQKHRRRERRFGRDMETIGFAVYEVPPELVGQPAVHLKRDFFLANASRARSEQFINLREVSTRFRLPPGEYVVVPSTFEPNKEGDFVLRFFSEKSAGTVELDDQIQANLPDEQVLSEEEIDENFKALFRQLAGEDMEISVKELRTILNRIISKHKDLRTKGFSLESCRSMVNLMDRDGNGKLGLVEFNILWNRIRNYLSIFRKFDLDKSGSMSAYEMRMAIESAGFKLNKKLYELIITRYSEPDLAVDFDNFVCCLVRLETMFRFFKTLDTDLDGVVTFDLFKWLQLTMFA
T2 sequence (P04632 1-268 partner): T1 sequence (P04632 1-268 partner)
Protocol: as §1

[2] = Epimerization/inactivation in PBS at 37° C.; format: physicochemical
[3] = target: T3, human calpain-1 (purified from erythrocytes, ecalpain-1) (Homo sapiens, UniProt P07384); assay: Inhibition of human calpain-1 purified from erythrocytes; format: biochemical; conditions: highest concentration tested, 3 μM
T3 construct: human calpain-1 (purified from erythrocytes, ecalpain-1); from tissue; host or cells: human erythrocytes
T3 sequence (P07384 1-714): T2 sequence (P07384 1-714)
T3 sequence (P04632 1-268 partner): T1 sequence (P04632 1-268 partner)
Protocol: (§2) Various concentrations of NA112 in the liposomal formulation were incubated with human calpain-1 (purified from erythrocytes, ecalpain-1) or a recombinant human calpain-2 (hcalpain-2) and calpain activity assayed as in FIG. 1. IC50 were determined and transformed into Ki values (FIG. 10A, 10B). Values previously obtained with NA112 dissolved in DMSO are shown for comparison (FIG. 10B).
(§3) Cerebellar homogenates from wild-type (WT) or calpain-1 Knock-out (KO) mice were incubated with 20 μM calcium to activate calpain-1 or with 2 mM calcium to activate calpain-2, respectively, and increasing concentrations of NA184.
(§4) Like in NA112, there are 2 chiral centers in NA184. The inhibitory activity of the compounds NA184A (S-S isomer) and NA184B (S-R stereoisomer) against erythrocyte human calpain-1 (ecalpain-1) and recombinant human calpain-2 (hcalpain-2) were determined.

[4] = target: T4, recombinant human calpain-2 (hcalpain-2) (Homo sapiens, UniProt P17655); assay: Inhibition of recombinant human calpain-2; format: biochemical; conditions: highest concentration tested, 3 μM
T4 sequence (P17655 1-700): T1 sequence (P17655 1-700)
T4 sequence (P04632 1-268 partner): T1 sequence (P04632 1-268 partner)
Protocol: as §2, §3, §4

CC[C@H](NC(=O)[C@H](CC(C)C)NC(=O)NCc1ccccc1)C(=O)C(=O)NCc1cc(OC)cc(OC)c1 [NA112A, (S)-2-(3-benzylureido)-N-((S)-1-((3,5-dimethoxybenzyl)amino)-1,2-dioxopentan-3-yl)-4-methylpentanamide]
Inhibitory activity against calpain-2 (calpain-2): expected inhibitory activity | Inactivation in mouse plasma [1]: rapidly inactivated; also recorded: became inactive

CC[C@@H](NC(=O)[C@H](CC(C)C)NC(=O)NCc1ccccc1)C(=O)C(=O)NCc1cc(OC)cc(OC)c1 [NA112B]
Inhibitory activity against calpain-2 (calpain-2): no inhibitory activity | Inhibitory activity against calpain-1 (calpain-1): no inhibitory activity

CC[C@H](NC(=O)[C@H](CC(C)C)NC(=O)NCc1ccccc1)C(=O)C(=O)NCc1cccc(Cl)c1OC [NA184A]
Epimerization/inactivation in PBS [2]: rapidly inactivated; also recorded: rapid epimerization | Inhibitory activity against ecalpain-1 [3]: expected inhibitory activity | Inhibitory activity against hcalpain-2 [4]: expected inhibitory activity

CC[C@@H](NC(=O)[C@H](CC(C)C)NC(=O)NCc1ccccc1)C(=O)C(=O)NCc1cccc(Cl)c1OC [NA184B]
Inhibitory activity against ecalpain-1 [3]: no inhibitory activity | Inhibitory activity against hcalpain-2 [4]: no inhibitory activity
